The source of these data is ChEMBL document CHEMBL1153779, “Tyrosinase-inhibitory constituents from the twigs of Cinnamomum cassia” (J Nat Prod, 2009).

pIC50: −log10 of the molar value.

This assay deals with T1, Tyrosinase (Agaricus bisporus, UniProt O42713).
T1 sequence (O42713 whole entry): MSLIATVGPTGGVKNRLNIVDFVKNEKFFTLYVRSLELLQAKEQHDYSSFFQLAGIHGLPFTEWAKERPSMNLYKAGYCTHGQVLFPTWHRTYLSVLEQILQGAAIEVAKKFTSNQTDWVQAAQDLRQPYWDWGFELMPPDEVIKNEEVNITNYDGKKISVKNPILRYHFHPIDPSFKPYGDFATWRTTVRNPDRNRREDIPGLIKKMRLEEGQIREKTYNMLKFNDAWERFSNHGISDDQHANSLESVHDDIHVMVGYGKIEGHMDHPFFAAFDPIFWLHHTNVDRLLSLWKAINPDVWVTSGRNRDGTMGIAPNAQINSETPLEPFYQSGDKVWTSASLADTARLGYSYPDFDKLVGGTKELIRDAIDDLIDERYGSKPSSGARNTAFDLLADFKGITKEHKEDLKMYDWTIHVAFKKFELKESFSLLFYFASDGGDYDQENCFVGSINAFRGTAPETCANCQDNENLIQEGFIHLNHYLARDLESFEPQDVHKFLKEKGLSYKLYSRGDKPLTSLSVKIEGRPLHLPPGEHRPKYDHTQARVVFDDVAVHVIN
Description: Inhibition of mushroom tyrosinase after 10 mins by spectrophotometry
Consider `COc1c(O)cccc1/C=C/C=O`, for which the pIC50 was 3.59.

In turn, `OC[C@H]1O[C@@H](OCCc2ccccc2)[C@H](O)[C@@H](O)[C@@H]1O[C@@H]1OC[C@](O)(CO)[C@H]1O` showed a pIC50 of 3.15.

`O=C/C=C/c1ccccc1` had a pIC50 of 3.28.

Compound `COc1ccccc1/C=C/C=O` showed a pIC50 of 3.38.

In the case of `O=C/C=C/c1ccccc1O` [2-HYDROXYCINNAMALDEHYDE], the pIC50 was 3.33.

`C[C@@H]1O[C@@H](OC[C@H]2O[C@@H](Oc3ccccc3/C=C/CO)[C@H](O[C@@H]3[C@@H](OCc4ccccc4)O[C@@H](CO[C@@H]4OC[C@](O)(CO)[C@H]4O)[C@H](O)[C@H]3O)[C@@H](O)[C@@H]2O)[C@H](O)[C@H](O)[C@H]1O` [CINNACASSINOL] showed a pIC50 of 3.03.

On to `OC/C=C/c1ccccc1` [CINNAMIC ALCOHOL], for which the pIC50 was < 2.00.

For `COc1cc(/C=C/C=O)ccc1O` [CONIFERYL ALDEHYDE], the pIC50 is 3.62.

Regarding `O=C(CCc1ccccc1O)O[C@@H]1O[C@H](CO)[C@@H](O)[C@H](O)[C@H]1O` [DIHYDROCINNACASSIDE], the pIC50 was 3.17.

The compound `O=C(O)CCc1ccccc1O[C@@H]1O[C@H](CO)[C@@H](O)[C@H](O)[C@H]1O` [DIHYDROMELILOTOSIDE] showed a pIC50 of 3.24.

`Oc1ccc(O)cc1` [HYDROQUINONE] showed a pIC50 of 2.38.

Turning to `COC(=O)CCc1ccccc1O[C@@H]1O[C@H](CO)[C@@H](O)[C@H](O)[C@H]1O` [METHYL DIHYDROMELILOTOSIDE], the pIC50 is 3.20.

As to `O=C(O)/C=C/c1ccccc1O` [O-COUMARIC ACID], the pIC50 was 3.17.

Take `O[C@@H]1[C@@H](O)[C@@H](OC/C=C/c2ccccc2)O[C@H](CO[C@@H]2OC[C@H](O)[C@H](O)[C@H]2O)[C@H]1O` [ROSAVIN]: the pIC50 is < 2.00.
